Entries after “also recorded” stand apart in the source; their conditions may differ. Like-named read-outs stand apart in the source and are kept apart here. Ends that are not written are not given here. Peptide text beside a SMILES is read from it.

Experimental findings from paper PMC7060200, “Selective Binding of HSC70 and its Co-Chaperones to Structural Hotspots on CFTR” (Scientific Reports, 2020) are described below.

Assay [1] has as its target T1, HSC70 (Homo sapiens, UniProt P11142).
T1 construct: made in house
The assay is described as follows: Competition ELISA: soluble peptide vs HSC70 binding to immobilized 1097-L. The note with it: for HSC70 binding site by competition screen (in words): 1 μM HSC70, 100 μM soluble peptide, Fig. 3c/5, cutoff twice SD of 733-L, n ≥ 4; for competition of HSC70 binding to immobilized 1097-L (in words): 1 μM HSC70, soluble peptide up to 100 μM. How it is done:
(§1) HSC70, DJA1 and DJA2 were purified as His-tagged proteins, as described. HSC70 was also amplified by PCR with an N-terminal FLAG tag, inserted into pPROEXHTa (Invitrogen) and purified as described. HSC70 was stored in 100 mM KOAc, 20 mM HEPES-KOH pH 7.5, 5 mM MgOAC2 (buffer G), DJA1 and DJA2 in 500 mM NaCl, 20 mM HEPES-KOH pH 7.5, 5 mM MgOAC2 (buffer H). Avi-tagged CFTR NBD1 was purified as described.
(§2) The CFTR peptide library was designed as 15-mers with 10-residue overlaps covering the cytosolic sequences as in Fig. 1a and Supplemental Table S1. Synthetic peptides (Mimotopes, PepSet purity) contained an N-terminal biotin followed by linker sequence GSGS and the 15-mer sequence. […] Peptides were reconstituted in DMSO or water.
(§3) For peptide binding, streptavidin-coated black 96-well plates (Nunc Maxisorp, ThermoFisher) were pre-rinsed with PBS containing 0.05% Tween-20 (PBST), and 5 µM biotinylated peptides in 100 µl PBS were bound overnnight at 4 °C with agitation. Plates were washed with PBST and blocked with PBST containing 0.5% bovine serum albumin (BSA) for 1 h. After removal of blocking solution, 100 µl reactions containing chaperones at indicated concentrations were bound for 45 min at room temperature with agitation. HSC70 reactions were in buffer G containing 1 mM ATP, DJA1 and DJA2 reactions were in buffer H. For competition assays, chaperones and peptides were mixed at indicated concentrations immediately before the reactions were added to the plates. For detections, the plates were washed in PBST and 5 μM His-Probe-HRP conjugate (ThermoFisher) in 100 μL PBST added for 15 min with agitation. After washing in PBST, plates were developed using Amplex Red (ThermoFisher) according to manufacturer’s instructions, in a fluorescence plate reader (Tecan M1000).
(§4) Affinities were determined separately from binding curves and from competition curves. Data from binding of chaperones to immobilized peptides (Fig. 2a,b and Supplemental Fig. S2a–c) were fit to the equation 1/(1 − i) = (C/i)/Kd^B − b, where i is the relative saturation, C is the chaperone concentration (1 μM), Kd^B is the apparent dissociation constant from the binding data. In the plot of 1/(1 − i) against (C/i), the slope is 1/Kd^B, and −b is the intercept. […] In the plot of bi + (C/Kd^B)/i over D, the slope is 1/Kd^C, and e is the intercept. The amount of chaperone bound in the absence of competitor was set as i = 1.
(§5) Established statistical methods[71]–[73] were used to analyze the data for chaperone binding to the peptide library. First, biological and statistical outliers were identified with the Tukey method in two rounds, for biological and then statistical outliers. […] Binding data were represented as multiples of the standard deviations from the normal means. Binding in the presence of competitor peptides were shown as a fraction of binding in the absence of competitor, or the fraction competed calculated as 1 – fraction bound. Values were compared using a two-tailed unpaired Student’s t-test assuming unequal variance.
On the technique in general: ELISA stands for enzyme-linked immunosorbent assay.

In assay [2] the target is T2, DJA2 (Homo sapiens, UniProt O60884).
T2 construct: made in house
The assay is described as follows: Competition ELISA: soluble peptide vs DJA2 binding to immobilized 1097-L. The note with it: for DJA2 binding site by competition screen (in words): 1 μM DJA2, 100 μM soluble peptide, Fig. 3c/5, cutoff twice SD of 733-L, n ≥ 4; for competition of DJA2 binding to immobilized 1097-L (in words): 1 μM DJA2, soluble peptide up to 100 μM. Here is the method: as §1, §2, §3, §4, §5

In assay [3] the target is T3, DJA1 (Homo sapiens, UniProt P31689).
T3 construct: made in house
The assay is described as follows: Competition ELISA: soluble peptide vs DJA1 binding to immobilized 1097-L. To be noted: for DJA1 binding site by competition screen (in words): 1 μM DJA1, 100 μM soluble peptide, Fig. 3c/5, cutoff twice SD of 733-L, n ≥ 4; for competition of DJA1 binding to immobilized 1097-L (in words): 1 μM DJA1, soluble peptide up to 100 μM. How it is done:
as §1, §2, §3, §4, §5

Assay [4] has as its target T1, HSC70. The experiment in a line: ELISA binding of HSC70 to immobilized biotinylated CFTR peptides. To be noted: for binding in peptide library screen, HSC70 (in words): 2 μM HSC70, with ATP, immobilized 15-mer, n ≥ 3. How it is done: as §1, §2, §3, §4, §5
The target of assay [5] is T2, DJA2. The experiment in a line: ELISA binding of DJA2 to immobilized biotinylated CFTR peptides. The note with it: 2 μM DJA2, absence of ATP, immobilized 15-mer; n ≥ 3. How it is done: as §1, §2, §3, §4, §5
Assay [6] has as its target T3, DJA1. The experiment in a line: ELISA binding of DJA1 to immobilized biotinylated CFTR peptides. The note with it: 2 μM DJA1, absence of ATP, immobilized 15-mer; n ≥ 3. How it is done:
as §1, §2, §3, §4, §5

A further assay deals with HSC70 and DJA2. The experiment in a line: Refolding of guanidine denatured luciferase by HSC70 and DJA2. The note with it: 4 μM each HSC70 and DJA2, 100 nM luciferase, 100 μM peptide (25-fold excess), 60 min, % of control without peptide; n = 3. The assay is classed as biochemical. Here is the method: Refolding of guanidine denatured luciferase with HSC70 and DJA2 was as described. […] To monitor refolding, luciferase activity was measured in a luminometer (Berthold Sirius) with the luciferase assay kit (Promega). For co-IPs, 20 μL reaction aliquots were stopped by dilution at 4 °C to 500 μL with buffer containing 0.1% Triton X-100, 0.2% BSA and 0.04 mg/mL apyrase (Sigma). Reactions were incubated with FLAG-M2 magnetic beads (Sigma) for 1 h at 4 °C with agitation, then beads were isolated and washed with buffer G containing 0.1% Triton X-100, and eluted with 40 μL of 1 μg/mL FLAG peptide in the same buffer. Samples were analyzed on Western blots detected with antibodies against luciferase (Sigma, L2164) and the FLAG-M2 tag (Sigma, F1804).

T1 sequence (P11142 whole entry): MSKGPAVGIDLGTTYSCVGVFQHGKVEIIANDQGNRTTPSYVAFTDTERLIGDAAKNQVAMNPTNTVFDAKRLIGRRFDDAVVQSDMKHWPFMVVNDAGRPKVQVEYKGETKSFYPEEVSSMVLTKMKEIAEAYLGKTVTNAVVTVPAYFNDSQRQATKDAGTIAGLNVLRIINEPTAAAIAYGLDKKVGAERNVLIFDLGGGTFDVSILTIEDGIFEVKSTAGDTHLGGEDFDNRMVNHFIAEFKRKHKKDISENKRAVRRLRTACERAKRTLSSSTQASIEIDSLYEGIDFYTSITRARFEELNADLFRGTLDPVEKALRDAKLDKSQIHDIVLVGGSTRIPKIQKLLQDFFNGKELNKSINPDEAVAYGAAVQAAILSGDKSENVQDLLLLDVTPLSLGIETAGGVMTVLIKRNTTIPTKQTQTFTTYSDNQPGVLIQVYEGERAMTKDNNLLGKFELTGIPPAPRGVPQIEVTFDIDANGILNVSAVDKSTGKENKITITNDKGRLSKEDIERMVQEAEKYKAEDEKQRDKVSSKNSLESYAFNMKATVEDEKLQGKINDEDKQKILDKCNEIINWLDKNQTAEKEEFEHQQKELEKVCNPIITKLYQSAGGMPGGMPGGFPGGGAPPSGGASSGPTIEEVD
T2 sequence (O60884 whole entry): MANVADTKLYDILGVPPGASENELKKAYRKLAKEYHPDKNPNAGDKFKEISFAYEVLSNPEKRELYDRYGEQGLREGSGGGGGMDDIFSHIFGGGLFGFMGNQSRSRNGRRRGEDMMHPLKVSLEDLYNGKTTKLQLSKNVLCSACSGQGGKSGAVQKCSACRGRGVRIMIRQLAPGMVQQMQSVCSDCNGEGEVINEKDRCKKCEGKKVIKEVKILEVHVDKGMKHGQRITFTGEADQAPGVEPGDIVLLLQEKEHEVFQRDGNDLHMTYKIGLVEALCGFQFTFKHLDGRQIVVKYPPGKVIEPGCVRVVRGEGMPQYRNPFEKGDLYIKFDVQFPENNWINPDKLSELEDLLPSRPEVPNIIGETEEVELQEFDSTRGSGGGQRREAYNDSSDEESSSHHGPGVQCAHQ

For QAFADCTVI [Peptide 1394-S, NBD2 9-mer], on HSC70 [1], the “HSC70 binding site by competition screen (in words)” value (“HSC70 binding site” below) is “bound by HSC70, DJA2 and DJA1”. In addition, the “DJA2 binding site by competition screen (in words)” value (from here on “DJA2 binding site”) on DJA2 [2] is “bound by HSC70, DJA2 and DJA1”. Also, on DJA1 [3], the “DJA1 binding site by competition screen (in words)” value (“DJA1 binding site” below) is “bound by HSC70, DJA2 and DJA1”.

For the compound “493-L: NBD1 15-mer 486-500 (GRISFCSQFSWIMPG; UniProt P13569 486-500, looked up, fragment) [Peptide 493-L]”, the “competition of HSC70 binding to immobilized 1097-L (in words)” value (shortened to “competition of HSC70 binding”) with HSC70 [1] is “competed poorly”. For the same compound, the “competition of DJA2 binding to immobilized 1097-L (in words)” value (from here on “competition of DJA2 binding”) in the assay with DJA2 [2] is given as “competed poorly”. In the assay with DJA1 [3], the “competition of DJA1 binding to immobilized 1097-L (in words)” value (“competition of DJA1 binding” below) is “competed poorly”. Moreover, in the assay with HSC70 [4], the “binding in peptide library screen, HSC70 (in words)” value was “binding by DJA1, HSC70 and DJA2, in the original screen”. The “binding in peptide library screen, DJA2 (in words)” value in the assay with DJA2 [5] is “binding by DJA1, HSC70 and DJA2, in the original screen”. Moreover, in the assay with DJA1 [6], the “binding in peptide library screen, DJA1 (in words)” value is “binding by DJA1, HSC70 and DJA2, in the original screen”.

Turning to “488-L: NBD1 15-mer 481-495 (KIKHSGRISFCSQFS; UniProt P13569 481-495, looked up, fragment) [Peptide 488-L]”, the “competition of HSC70 binding” value in the assay with HSC70 [1] is recorded as “competed poorly”. For the same compound, the “competition of DJA2 binding” value in the assay with DJA2 [2] is given as “competed poorly”. In addition, the “competition of DJA1 binding” value with DJA1 [3] is on record as “competed poorly”. Also, the “binding in peptide library screen, HSC70 (in words)” value with HSC70 [4] is “binding by DJA1, HSC70 and DJA2, in the original screen”. Moreover, the “binding in peptide library screen, DJA2 (in words)” value in the assay with DJA2 [5] was “binding by DJA1, HSC70 and DJA2, in the original screen”. Further, the “binding in peptide library screen, DJA1 (in words)” value in the assay with DJA1 [6] is “binding by DJA1, HSC70 and DJA2, in the original screen”.

As to `CC[C@H](C)[C@H](NC(=O)[C@H](CCCNC(=N)N)NC(=O)[C@H](Cc1c[nH]cn1)NC(=O)[C@H](CCC(=O)O)NC(=O)[C@H](CS)NC(=O)[C@H](CC(C)C)NC(=O)[C@@H](NC(=O)[C@@H](NC(=O)[C@@H](N)[C@@H](C)O)C(C)C)[C@@H](C)CC)C(=O)N[C@@H](CCC(=O)O)C(=O)N[C@@H](C)C(=O)N[C@@H](CCSC)C(=O)N[C@@H](CC(C)C)C(=O)N[C@@H](CCC(=O)O)C(=O)N[C@@H](CS)C(=O)O` [Peptide 1403-L] (H-TVILCEHRIEAMLEC-OH), the “competition of HSC70 binding” value at HSC70 [1] is on record as “competed all of the chaperones well”. For the same compound, on DJA2 [2], binding was put at a Kd of 995 nM and the “competition of DJA2 binding” value is “competed all of the chaperones well”. Besides, at DJA1 [3], the “competition of DJA1 binding” value is recorded as “competed all of the chaperones well”.

Regarding FGVIPQKVFIFSGTF [Peptide 1293-L], the “competition of HSC70 binding” value at HSC70 [1] is “Strong, essentially saturating competition; also recorded: only competed HSC70”. Further, the “competition of DJA2 binding” value on DJA2 [2] is “only competed HSC70”. For the same compound, on DJA1 [3], the “competition of DJA1 binding” value is given as “only competed HSC70”. Further, at HSC70 [4] (titration on immobilized peptide, Fig. 2a, n ≥ 6), the “HSC70 concentration at which binding reached saturation” value was “around 1 μM”.

Consider SCVCKLMAN [Peptide 593-S, NBD1 9-mer], for which the “DJA1 binding site” value on DJA1 [3] is reported as “DJA1 site”.

Regarding DLYLLDSPF [Peptide 571-S, NBD1 9-mer], the “HSC70 binding site” value at HSC70 [1] was “bound only by DJA2”. Also, the “DJA2 binding site” value at DJA2 [2] is on record as “bound only by DJA2”. Besides, on DJA1 [3], the “DJA1 binding site” value is “bound only by DJA2”.

For the compound SKLFFSWTR [Peptide 17-S], on HSC70 [1], the “competition of HSC70 binding” value is reported as “competed HSC70 well”. The “effect on luciferase refolding (in words)” value with HSC70 and DJA2 was “partial but still significant”.

As to HRIEAMLEC [Peptide 1406-S, NBD2 9-mer], the “HSC70 binding site” value on HSC70 [1] is listed as “HSC70 site”.

Take `CC[C@H](C)[C@H](NC(=O)[C@@H](NC(=O)[C@@H](NC(=O)[C@H](CS)NC(=O)[C@H](CC(=O)O)NC(=O)[C@H](C)NC(=O)[C@H](Cc1ccccc1)NC(=O)[C@H](C)NC(=O)[C@H](CCC(N)=O)NC(=O)[C@H](CCCCN)NC(=O)[C@H](CC(C)C)NC(=O)[C@@H](NC(=O)[C@@H](N)CCCNC(=N)N)[C@@H](C)O)[C@@H](C)O)C(C)C)C(=O)N[C@@H](CC(C)C)C(=O)N[C@@H](CS)C(=O)O` [Peptide 1393-L] (H-RTLKQAFADCTVILC-OH): on HSC70 [1], the “competition of HSC70 binding” value is “competed all of the chaperones well”. Further, the “competition of DJA2 binding” value on DJA2 [2] was “competed all of the chaperones well”. Moreover, at DJA2 [2] (read-out: Kd from competition curves, DJA2), the Kd amounted to 1490 nM. Moreover, the “competition of DJA1 binding” value at DJA1 [3] is given as “competed all of the chaperones well”.

Regarding EIFESCVCK [Peptide 589-S, NBD1 9-mer], at DJA2 [2], the “DJA2 binding site” value is recorded as “DJA2 site”.

Consider LRWFQMRIE [Peptide 1100-S], for which, on DJA2 [2], the “competition of DJA2 binding” value is given as “competed”.

In the case of ILCEHRIEA [Peptide 1402-S, NBD2 9-mer], the “HSC70 binding site” value at HSC70 [1] is given as “HSC70 site”.

As a reminder, the Kd is the free concentration of one partner at which half of the binding sites on the other are occupied at equilibrium, for simple one-to-one binding.
